The subject of data set [1] is NOD/SCID mice transplanted with FOP-iMSCs. The text has this:
MTOR s604 […]tt […]at […]
For X- ray images, mice were anesthetized with isoflurane (5% for induction, 2-3% for maintenance, Abbvie), immobilized and X-rayed using µFX-1000 (Fujifilm) or DX-50 (Faxitron Bioptics). µCT images were scanned using X-ray CT systems (inspeXio SMX-100CT, Shimadzu) and analyzed with TRI/3D-BON software (Ratoc System Engineering) according to the manufacturer's instructions. […]
Activin-A-induced HO model transplanted with FOP-iMSCs. FOP- (right leg) and resFOP-iMSCs (left leg) (4 x 10^6 cells, respectively) were transplanted into the gastrocnemius muscle of NOD/ShiJic-scid Jcl (NOD/SCID) mice (8 weeks, male, CLEA Japan) with C3H -DoxOn-hINHBA (5 x 10^5 cells), which can continuously expose Activin-A to the transplanted iMSCs in vivo ( Hino et al., 2015) . In the Dox-induced group, 1 mg/mL Dox (Sigma-Aldrich) was administered via drinking water with 10 mg/mL sucrose (Nacalai Tesque) for two weeks after transplantation. Compounds were intraperitoneally administered once a day, five times a week. Eight weeks after transplantation, the transplanted cells were harvested , fixed with 4% paraformaldehyde for 24 h, embedded in paraffin, and sectioned and stained with HE, von Kossa, Safranin O, human specific anti-Vimentin antibody and Collagen I antibody as previously described (Hino et al., 2015; Umeda et al., 2012; […]

In another data set the test system is ATDC5/FOP-ACVR1 cells. As to the kind of experiment: ALP assay (HTS and dose-response) in ATDC5/FOP-ACVR1. The format is cell-based, mouse. The conditions noted are these: Mus musculus, same protocol as HTS (72 h).
The next data set has as its system FOP-iMSCs. The conditions noted are these: TGF-β3 10 ng/mL, 7 days, 1 nM-1 µM. An excerpt:
(§1) Generation of ATDC5 stably expressing ACVR1. WT - or FOP-ACVR1 was inserted into doxycycline (Dox)- inducible vector KW111 (Woltjen et al., 2009), which enables us to easily produce stably expressing cell lines utilizing the piggyBac (PB) transposon system from the cabbage looper moth Trichoplusia ni (Ding et al., 2005) (KW111/WT-ACVR1 or KW111/FOP-ACVR1). KW111/WT-ACVR1 or KW111/FOP-ACVR1 and PBaseII plasmid (PB transposase expression vector) ( Matsui et al., 2014 ) were co-transfected into ATDC5 cells by FuGeneHD® (Promega) according to the manufacturer’s protocol, and the neomycin- resistant population (500 µg/mL) was selected. Further selection was performed by selecting a mCherry high positive population (< 5%) after six hours of Dox treatment, sorting it with fluorescent-activated cell sorting (FACS) using AriaII (BD) according to the manufacturer’s protocol, and designating it as ATDC5/WT-ACVR1 or ATDC5/FOP-ACVR1. […]
(§2) HTS campaign and follow-up screens. […] After 3 days incubation, Alkaline Phosphatase activity (ALP) or AlamarBlue activity was measured using Amplite™ Colorimetric Alkaline Phosphatase Assay Kit (AAT Bioquest) or alamarBlue® Cell Viability Reagent (Thermo Fisher Scientific) according to the manufacturer’s protocol, respectively. T h e absorbance at 400 nm (Abs for ALP) or Relative Fluorescent Unit of Ex560/Em590 nm (RFU for AlamarBlue) was measured on POWERSCAN4 (DS Pharma Biomedical) or EnVision® Multilabel Reader (PerkinElmer).
(§3) Inhibitory effects of the screened compounds are given as percent inhibition, which was calculated using the following equation: (1-([Abs of compound] - [Abs of Min])/([Abs of Max] - [Abs of Min]))× 100, where [Abs of Max] and [Abs of Min] are the mean Abs of DMSO control and 1 µM DMH-1, respectively. The Z’ factor, which is widely used as a measure of the assay quality of each plate, was calculated using the following equation: Z’ factor = 1 - 3 × ([SD of Max] + [SD of Min])/([Abs of Max] - [Abs of Min]) (SI Appendix, Fig. […]

The next data set deals with resFOP-iMSCs.
Source text: as §1, §2, §3

Take `FC(F)(F)c1ccc(/C=C/c2nc(COc3ccc(CCCCn4ccnn4)cc3)co2)cc1` [TAK 165, mubritinib]: in data set [1] (5 mg/kg i.p.), the “anti-human-specific vimentin-positive cells (survival of transplanted cells)” value is “large number”; the “body weight change compared with vehicle group” value is reported as “No significant differences”; the “hypertrophic chondrocytes and von Kossa- and COL1-positive bone regions” value is reported as “fewer”. The “HO derived from FOP-iMSCs (heterotopic bone volume)” value in data set [1] (5 mg/kg i.p. once daily, five times a week, 8 weeks after transplantation) was “significantly suppressed”. In the data set with ATDC5/FOP-ACVR1 cells, the IC50 is 0.039 µM. For the same compound, the “chondrogenesis of FOP-iMSCs stimulated with TGF-β3 (GAG)” value in the data set on FOP-iMSCs was “suppressed”. Also, the “chondrogenesis of resFOP-iMSCs stimulated with Activin-A (GAG)” value in the data set on resFOP-iMSCs (Activin-A 100 ng/mL, 7 days, 1 nM-1 µM) was “suppressed”. For the same compound, in the data set on resFOP-iMSCs (FOP-iMSCs vs resFOP-iMSCs), the “effect on FOP cells versus normal cells” value was “stronger effects on FOP cells than on normal cells”.
